Reference: US9206201B2, “Boronic acid bearing liphagane compounds as inhibitors of P13K-α and/or β” (COUNCIL OF SCIENTIFIC & INDUSTRIAL RESEARCH, priority 2012, dated 2015)
Read-outs that look alike come from different tables or passages of the source.

Legend:
[1] = biological target: PI3K δ (Homo sapiens (Human), UniProt O00329); test: PI3K inhibition assay, PI3K δ isoform; format: biochemical
Protocol: (§1) PI3K inhibition assay (PI3K Assay (Emmanuelle M, Huang Y, Yan H G et al. Targeting Protein Translation in Human Non-Small Cell Lung Cancer via Combined MEK and Mammalian Target of Rapamycin Suppression. Cancer Res 67:(23). (2007).) was carried out by PI3 Kinase activity/inhibitor assay kit, where PI3 kinase reaction was set up in Glutathione-coated strips/plate for inhibitor reaction. Kinase and inhibitors were pre-incubated for 10 minutes prior to the addition of PIP2 substrate. 5 μL of 5× kinase reaction buffer were added in each well followed by the further addition of 5 μL/well of PIP2 substrate. Then distilled H2O was added to each well so as to make up a final volume of 25 μL/well. Incubation was done at rt for 1 hour which was followed by washing the wells 3 times with 200 μL of 1×TBST per well and then 2 times with 200 μL of IX TBS per well. Then 100 μL of the Substrate TMB per well was added and then to keep for colour development in the dark for 5-20 minutes. However, appearance of the blue color to avoid over-development were monitored. 100 μL of the stop solution per well was used to stop the reaction. Readings were recorded at 450 nm.

[2] = biological target: PI3K γ (Homo sapiens (Human), UniProt P48736); test: PI3K inhibition assay, PI3K γ isoform; format: biochemical
Sequence of PI3K γ (P48736 whole entry, canonical isoform): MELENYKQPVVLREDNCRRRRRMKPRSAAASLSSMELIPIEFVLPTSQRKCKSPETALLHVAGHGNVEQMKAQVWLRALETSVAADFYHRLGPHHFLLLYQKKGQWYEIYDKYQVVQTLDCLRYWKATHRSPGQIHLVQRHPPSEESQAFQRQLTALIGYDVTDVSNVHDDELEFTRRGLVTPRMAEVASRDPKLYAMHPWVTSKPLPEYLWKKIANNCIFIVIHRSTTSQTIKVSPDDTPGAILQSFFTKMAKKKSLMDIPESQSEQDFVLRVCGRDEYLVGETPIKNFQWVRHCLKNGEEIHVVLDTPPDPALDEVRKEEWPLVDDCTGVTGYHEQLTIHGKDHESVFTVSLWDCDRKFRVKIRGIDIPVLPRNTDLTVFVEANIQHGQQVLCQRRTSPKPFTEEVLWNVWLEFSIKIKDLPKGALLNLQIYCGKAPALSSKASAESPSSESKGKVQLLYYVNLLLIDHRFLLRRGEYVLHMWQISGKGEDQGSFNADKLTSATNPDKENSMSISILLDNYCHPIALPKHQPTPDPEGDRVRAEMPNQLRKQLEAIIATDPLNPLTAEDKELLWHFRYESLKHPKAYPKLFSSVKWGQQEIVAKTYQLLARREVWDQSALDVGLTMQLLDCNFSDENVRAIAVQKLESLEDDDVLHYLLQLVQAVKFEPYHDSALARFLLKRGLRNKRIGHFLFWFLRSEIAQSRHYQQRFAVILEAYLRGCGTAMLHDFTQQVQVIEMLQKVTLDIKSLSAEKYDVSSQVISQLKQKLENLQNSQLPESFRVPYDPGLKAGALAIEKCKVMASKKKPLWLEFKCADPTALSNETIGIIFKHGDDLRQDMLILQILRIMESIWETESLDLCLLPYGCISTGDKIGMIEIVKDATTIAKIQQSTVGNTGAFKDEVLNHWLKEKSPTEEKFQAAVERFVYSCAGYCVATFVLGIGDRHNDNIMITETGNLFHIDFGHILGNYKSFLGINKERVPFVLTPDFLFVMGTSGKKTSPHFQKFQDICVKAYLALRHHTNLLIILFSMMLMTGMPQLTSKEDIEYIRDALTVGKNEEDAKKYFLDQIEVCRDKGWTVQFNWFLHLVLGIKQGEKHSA
Protocol: as §1

[3] = biological target: PI3Kα (Homo sapiens (Human), UniProt P42336); test: PI3K inhibition assay (PI3 Kinase activity/inhibitor assay kit), PI3Kα; format: biochemical; details: read-out: IC50 against PI3Kα
Sequence of PI3Kα (P42336 whole entry, looked up): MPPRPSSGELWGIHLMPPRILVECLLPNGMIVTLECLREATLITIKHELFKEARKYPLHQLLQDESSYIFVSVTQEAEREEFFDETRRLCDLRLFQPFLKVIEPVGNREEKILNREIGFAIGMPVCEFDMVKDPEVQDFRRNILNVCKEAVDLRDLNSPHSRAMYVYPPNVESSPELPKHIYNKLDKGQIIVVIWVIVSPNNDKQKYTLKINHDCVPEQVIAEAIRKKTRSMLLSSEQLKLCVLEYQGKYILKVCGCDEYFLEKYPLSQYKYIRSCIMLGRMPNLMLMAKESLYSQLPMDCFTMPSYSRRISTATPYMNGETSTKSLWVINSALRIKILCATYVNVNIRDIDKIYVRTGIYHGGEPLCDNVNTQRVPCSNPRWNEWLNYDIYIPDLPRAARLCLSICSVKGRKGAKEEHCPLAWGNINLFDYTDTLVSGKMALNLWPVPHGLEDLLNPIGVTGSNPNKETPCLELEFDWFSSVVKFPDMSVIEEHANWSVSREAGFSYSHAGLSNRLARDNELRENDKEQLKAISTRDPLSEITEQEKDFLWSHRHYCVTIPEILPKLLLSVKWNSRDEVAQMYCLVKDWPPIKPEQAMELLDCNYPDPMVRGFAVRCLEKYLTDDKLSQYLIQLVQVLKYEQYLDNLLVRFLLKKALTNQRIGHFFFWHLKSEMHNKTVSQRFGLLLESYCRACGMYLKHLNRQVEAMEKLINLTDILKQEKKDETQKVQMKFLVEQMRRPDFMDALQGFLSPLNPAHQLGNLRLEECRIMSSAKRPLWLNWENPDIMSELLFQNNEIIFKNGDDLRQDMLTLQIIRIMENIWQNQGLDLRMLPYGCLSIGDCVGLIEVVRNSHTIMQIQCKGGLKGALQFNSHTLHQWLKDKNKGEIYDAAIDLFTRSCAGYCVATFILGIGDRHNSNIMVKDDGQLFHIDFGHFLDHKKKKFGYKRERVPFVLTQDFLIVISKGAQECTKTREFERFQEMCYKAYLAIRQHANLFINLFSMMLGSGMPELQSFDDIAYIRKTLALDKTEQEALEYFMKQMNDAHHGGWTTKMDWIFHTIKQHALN
Sequence of PI3Kα (P27986 whole entry partner, looked up): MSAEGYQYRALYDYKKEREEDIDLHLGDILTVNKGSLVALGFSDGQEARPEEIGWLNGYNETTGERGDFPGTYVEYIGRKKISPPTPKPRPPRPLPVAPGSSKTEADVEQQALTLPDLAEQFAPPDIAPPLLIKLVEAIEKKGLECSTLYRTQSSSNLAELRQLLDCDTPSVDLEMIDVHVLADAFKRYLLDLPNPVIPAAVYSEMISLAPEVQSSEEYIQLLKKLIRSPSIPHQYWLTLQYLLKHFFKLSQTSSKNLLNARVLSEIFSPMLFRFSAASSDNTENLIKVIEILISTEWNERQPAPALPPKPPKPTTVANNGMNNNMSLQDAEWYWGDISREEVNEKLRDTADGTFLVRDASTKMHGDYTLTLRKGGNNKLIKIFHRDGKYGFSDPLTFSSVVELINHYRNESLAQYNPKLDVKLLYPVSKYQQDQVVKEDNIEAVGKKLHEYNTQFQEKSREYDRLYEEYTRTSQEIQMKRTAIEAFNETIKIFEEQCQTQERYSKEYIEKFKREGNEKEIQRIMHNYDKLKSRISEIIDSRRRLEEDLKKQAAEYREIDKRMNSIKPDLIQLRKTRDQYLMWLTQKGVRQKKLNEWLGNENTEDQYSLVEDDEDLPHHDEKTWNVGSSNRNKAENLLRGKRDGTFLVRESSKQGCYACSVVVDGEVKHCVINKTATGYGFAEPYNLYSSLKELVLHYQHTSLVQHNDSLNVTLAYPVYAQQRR

[4] = biological target: PI3Kβ (Homo sapiens (Human), UniProt P42338); test: PI3K inhibition assay (PI3 Kinase activity/inhibitor assay kit), PI3Kβ; format: biochemical
Sequence of PI3Kβ (P42338 whole entry): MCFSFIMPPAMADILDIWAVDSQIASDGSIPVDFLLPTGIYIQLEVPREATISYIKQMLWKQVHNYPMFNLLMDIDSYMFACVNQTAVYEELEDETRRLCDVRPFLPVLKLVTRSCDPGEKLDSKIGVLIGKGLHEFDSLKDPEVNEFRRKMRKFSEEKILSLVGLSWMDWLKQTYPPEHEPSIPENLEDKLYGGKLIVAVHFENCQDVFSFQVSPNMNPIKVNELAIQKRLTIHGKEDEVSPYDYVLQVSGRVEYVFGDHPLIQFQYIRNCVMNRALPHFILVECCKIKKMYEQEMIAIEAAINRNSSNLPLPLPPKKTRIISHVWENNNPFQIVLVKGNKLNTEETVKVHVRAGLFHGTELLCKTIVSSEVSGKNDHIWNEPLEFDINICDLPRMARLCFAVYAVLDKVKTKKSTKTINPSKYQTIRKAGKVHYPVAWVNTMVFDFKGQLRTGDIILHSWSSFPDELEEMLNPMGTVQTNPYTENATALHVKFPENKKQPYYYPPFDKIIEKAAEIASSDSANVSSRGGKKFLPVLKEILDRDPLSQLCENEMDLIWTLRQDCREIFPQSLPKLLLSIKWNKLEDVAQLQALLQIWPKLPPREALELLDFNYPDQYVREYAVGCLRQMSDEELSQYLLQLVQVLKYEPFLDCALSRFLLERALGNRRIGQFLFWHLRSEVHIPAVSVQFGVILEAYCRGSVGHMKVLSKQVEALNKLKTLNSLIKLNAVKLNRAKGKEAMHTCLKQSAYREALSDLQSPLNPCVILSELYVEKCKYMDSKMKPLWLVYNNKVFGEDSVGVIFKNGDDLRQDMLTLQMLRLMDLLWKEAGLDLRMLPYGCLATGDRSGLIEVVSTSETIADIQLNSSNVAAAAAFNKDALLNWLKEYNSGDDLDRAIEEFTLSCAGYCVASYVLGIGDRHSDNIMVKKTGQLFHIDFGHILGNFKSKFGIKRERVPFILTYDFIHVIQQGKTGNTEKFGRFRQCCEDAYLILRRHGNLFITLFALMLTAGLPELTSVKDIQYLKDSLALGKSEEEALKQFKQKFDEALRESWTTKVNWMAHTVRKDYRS
Sequence of PI3Kβ (P27986 whole entry partner): as the sequence (P27986 whole entry partner, looked up) above
Protocol: as §1, with “Y, Yan H G” left out, “nm. The IC50 value of a drug measures the effectiveness of a compound in inhibiting biological or biochemical function. […]” for “nm.”

[5] = system: human cancer cell lines; test: In vitro cell line based anticancer activity, human cancer cell lines; details: 10 μM
Excerpt: (§2) The MTT assay (MTT Assay (Legrier M E, Yang C P, Yan H G et al. Targeting protein translation in human non small lung cancer via combined MEK and mammalian target of rapamycin suppression. Cancer Res 67:11300-8(2007).) is useful for measuring the effect of a wide range of compounds on the in vitro growth of either normal or cancer cell lines. The assay was set up in a 96-well, flat-bottomed polystyrene microtiter plate. 3-5000 cells were suspended per well in appropriate growth medium, and the cells were added to replicate wells (triplicates were preferred). It was preferable to add the cells to the required number of wells in the plate prior to adding the drugs or the test agents. After the cells were added to the plate, it was placed on the incubator for overnight incubation, while the agents to be tested were being prepared. After overnight incubation drugs or test compounds were added at defined concentrations to each set of replicate wells and incubated for 48 hrs in CO2 incubator. Most of these compounds were dissolved in dimethyl sulfoxide (DMSO) for the final addition. After 48 hr incubation, diluted the MTT stock solution ([…]) with an equal volume of tissue culture medium and added 20 μl of this solution directly to each well with a multichannel pipette. […] A standard micro plate reader with adjustable wavelength across the visible spectrum was used. […]

[6] = system: caco-2; test: MTT cytotoxic assay, colon (caco-2) cell line; design: species or system human; details: 48 h, read-out: cell based IC50 (MTT)
Excerpt: as §2

[7] = system: pAkt (Ser 473) in CACO-2 cells; test: Immunofluorescence microscopic analysis of pAKT (serine 473); format: cell-based, human; details: 4 μM, 24 hr
Protocol: For immunofluorescence microscopic analysis, 4×10^4 CACO-2 cells/ml were seeded on 18-mm coverslips in 6-well plates, one day before experiment. […] Following treatment, cells were washed in PBS, followed by fixation in absolute methanol at −20° C. for 5 min^19. The fixed cells were blocked with 10% goat serum in PBS for 20 min at room temperature to eliminate non-specific binding of secondary antibody. Cells were incubated with polyclonal rabbit pAKT (serine 473) primary antibody (1:100 in 0.5% BSA in PBS; Santa Cruz Biotechnology) for 1 h at 25° C. in moist chamber, then washed and incubated with secondary antibody. The cells were washed and incubated for 45 min with a Texas red-conjugated goat antirabbit antibody (1:500 in 0.5% BSA in PBS; Santa Cruz Biotechnology) at 25° C. The coverslips were mounted on glass slides with 4′,6-diamidino-2-phenylindole-containing ProLong Gold Antifade mounting medium (Invitrogen) and visualized by fluorescence microscope (Olympus, IX81) under an Olympus 60× oil immersion objective lens. The negative controls were also used in which incubation of cells with primary antibody was omitted.
Results: Phosphorylation (activation) of Akt is associated with protection of cells from apoptosis^20 (K. Nicholson, N. Anderson. 2002. The protein kinase B/Akt signaling pathway in human malignancy. Cell signal 14: 381-395). […]

[8] = system: caco-2 colon human cancer cell line; test: Annexin-V apoptotic assay by flow cytometry; format: cell-based; details: caco-2, under similar conditions, concentration not given
Protocol: The cell death status was analysed using Annexin-V (Annexin-V apoptotic assay (Yunqing Li, FadilaGuessous, SherwinKwon, Manish Kumar. PTEN Has Tumor-Promoting Properties in the Setting of Gain-of-Function p53 Mutations, 2008 Cancer Res; 68: (6) (2008).) Flow cytometery. The experiment was performed using caco-2 colon human cancer cell line. Cells were seeded in 6 well plates at the concentration of 2×10^5 cells/ml/well. Plates were incubated in CO2 incubator for overnight. After overnight incubation test sample(s) were added at desired concentration, sparing wells for negative and positive control and incubated for 48 hrs. After 48 hr incubation, cell were trypsinized and separately transferred into 15 ml centrifuge tubes. Tubes were centrifuged at 3000 rpm for 5 min. The supernatant was discarded and pellet was resuspended in 1 ml filtered PBS and centrifuged at 2000 rpm for 5 min. After 5 mins supernatant was discarded and pellet was resuspended in […] of 1× binding buffer to make cell suspension. From this suspension, 100 μl of cells is transferred in falcon tube and then 10 μl of propidium iodide (PI) and 5 μl Annexin-V antibody were added and incubated for 30 min in dark. After 30 min incubation in dark, apoptosis were analysed by flow cytometer (BD Biosciences).
Overall, there was a concentration dependent net increase in late apoptotic cell population (FIG. 7).

[9] = system: caco-2, colon human cancer cell line; test: Cell cycle analysis by flow cytometry (propidium iodide); format: cell-based; details: caco-2, under similar conditions, concentration not given
Protocol: Analysis (Cell cycle (Waxman D J, Schwartz P S, Harnessing apoptosis for improved anti-cancer gene therapy, Cancer Res. 63:8563-8572(2003).) of a population of cells replication state can be achieved by fluorescence labeling of the nuclei of cells in suspension and then analyzing the fluorescence properties of each cell in the population. The experiment was performed using caco-2, colon human cancer cell line. Cells were seeded in 6 well plates at the concentration of 3×10^5 cells/ml/well. Plate was incubated in CO2 incubator for overnight. After overnight incubation test sample(s) were added at desired concentration, sparing wells for negative and positive control and incubated for 24 hrs. After 24 hr incubation, cell were trypsinized along with test sample from each well was extracted using a micropippete and separately transferred into 15 ml centrifuge tubes. Tubes were centrifuged at 3000 rpm for 5 min. […] Reading was taken on flow cytometer (BD Biosciences).
Results: Cell cycle is the life cycle of a cell. […] In the present study, the effect of compound E on the DNA content by cell cycle phase distribution was assessed by using colon (caco-2) cell line. […] Cells (2×10^6/ml/6-well plate), exposed to different concentrations of compound E were stained with propidium iodide (PI) to determine DNA fluorescence and cell cycle phase distribution. […]

Sequence of PI3K δ (O00329 whole entry, canonical isoform): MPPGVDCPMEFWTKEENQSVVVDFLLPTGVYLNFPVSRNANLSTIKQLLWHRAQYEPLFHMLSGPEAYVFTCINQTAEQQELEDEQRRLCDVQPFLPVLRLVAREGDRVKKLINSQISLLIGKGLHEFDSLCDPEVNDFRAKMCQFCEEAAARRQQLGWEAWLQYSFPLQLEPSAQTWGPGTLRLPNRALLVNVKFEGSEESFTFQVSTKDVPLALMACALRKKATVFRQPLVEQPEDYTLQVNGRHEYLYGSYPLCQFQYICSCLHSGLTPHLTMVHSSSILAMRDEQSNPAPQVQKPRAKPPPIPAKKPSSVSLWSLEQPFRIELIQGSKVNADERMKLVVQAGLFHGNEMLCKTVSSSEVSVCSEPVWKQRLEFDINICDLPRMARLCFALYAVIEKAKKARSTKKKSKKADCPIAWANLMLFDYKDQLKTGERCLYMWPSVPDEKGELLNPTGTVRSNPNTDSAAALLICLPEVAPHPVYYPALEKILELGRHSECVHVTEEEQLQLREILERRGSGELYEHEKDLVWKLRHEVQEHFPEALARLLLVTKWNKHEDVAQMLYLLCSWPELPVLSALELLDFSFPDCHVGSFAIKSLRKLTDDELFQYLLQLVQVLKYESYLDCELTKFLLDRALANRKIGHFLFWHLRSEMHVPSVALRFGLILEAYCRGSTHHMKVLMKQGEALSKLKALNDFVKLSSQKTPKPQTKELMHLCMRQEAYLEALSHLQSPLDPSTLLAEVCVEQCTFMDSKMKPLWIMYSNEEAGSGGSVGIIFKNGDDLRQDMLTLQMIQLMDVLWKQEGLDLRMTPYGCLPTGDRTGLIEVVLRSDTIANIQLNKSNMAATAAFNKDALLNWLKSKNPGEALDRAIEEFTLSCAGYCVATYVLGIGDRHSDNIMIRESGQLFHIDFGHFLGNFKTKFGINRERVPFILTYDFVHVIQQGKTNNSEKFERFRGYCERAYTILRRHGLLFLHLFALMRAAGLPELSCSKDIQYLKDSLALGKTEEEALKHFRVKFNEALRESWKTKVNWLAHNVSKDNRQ
Sequence of PI3K δ (P27986 whole entry partner, canonical isoform): as the sequence (P27986 whole entry partner, looked up) above

For `CC1(C)CCCC2(C)c3c(oc4c(B(O)O)c(O)c(O)cc34)CCC12` (centres unmarked) [Compound AZ], the IC50 [1] was 303000 nM, the IC50 [2] was 85400 nM and the IC50 [3] was 23 nM. For the same molecule, the IC50 ([4]; read-out: PI3K (IC50) β) was 5700 nM.
For `C=C(CC/C=C(\C)CCC=C(C)C)c1cc2cc(OC)c(OC)cc2o1` [Compound A], the optimal growth inhibition [5] was greater than 74%, the IC50 [6] was 2400 nM and the IC50 [3] was 140 nM. The IC50 ([4]; read-out: IC50 against PI3Kβ) was 100 nM.
In the case of Liphagal, the “effect on pAkt (Ser 473)” value [7] is reported as “inhibition of pAKT”, the “percentage of cells in late apoptotic phase” value [8] is reported as 42.7% and the “percentage of cells in sub-G0 phase” value [9] is reported as 64.9%.
